Assay results: ChEMBL document CHEMBL3352306, “Synthesis and antitumor activity of feruloyl and caffeoyl derivatives” (Bioorg Med Chem Lett, 2014)
pIC50: −log10 of the molar value. The source made the active and inactive calls. The rule behind the calls is not given here.

Columns and labels:
[1] = test system: HepG2; assay: Antitumor activity against human HepG2 cells assessed as inhibition of cell growth by MTT assay; type: functional, cell-based
[2] = Antitumor activity against human HL60 cells assessed as inhibition of cell growth by MTT assay; type: functional, cell-based; details: HL-60
[3] = Antitumor activity against human SGC7901 cells assessed as inhibition of cell growth by MTT assay; type: functional, cell-based; details: SGC-7901
[4] = test system: HeLa; assay: Antitumor activity against human HeLa cells assessed as inhibition of cell growth by MTT assay; type: functional, cell-based
[5] = test system: SiHa; assay: Antitumor activity against human SiHa cells assessed as inhibition of cell growth by MTT assay; type: functional, cell-based
[6] = test system: BeWo; assay: Antitumor activity against human Bewo cells assessed as inhibition of cell growth by MTT assay; type: functional, cell-based
[7] = test system: A549; assay: Antitumor activity against human A549 cells assessed as inhibition of cell growth by MTT assay; type: functional, cell-based
[8] = test system: MCF7; assay: Antitumor activity against human MCF7 cells assessed as inhibition of cell growth by MTT assay; type: functional, cell-based
[9] = test system: HL-60; assay: Induction of apoptosis in human HL60 cells at 0.5 to 2 ug/mL by flow cytometry; type: functional, cell-based
[10] = test system: CCRF S-180; assay: Antitumor activity against mouse S180 cells implanted in mouse assessed as inhibition of tumor growth at 40 mg/kg; type: functional
[11] = test system: HL-60; assay: Induction of cell morphological changes in human HL60 cells at 2.5 to 10 ug/mL; type: functional, cell-based
[12] = Antitumor activity against human Bel7404 cells assessed as inhibition of cell growth by MTT assay; type: functional, cell-based; details: BEL-7404
[13] = Antitumor activity against human […] cells assessed as inhibition of cell growth by MTT assay; type: functional, cell-based

Structure (SMILES) | pIC50 [1] | pIC50 [4] | pIC50 [7] | pIC50 [8] | pIC50 [2] | pIC50 [3] | pIC50 [5] | pIC50 [6] | Activity [9] | inhibition in vivo at 40 mg/kg [10] | Activity [11] | pIC50 [12] | pIC50 [13]
O=C(/C=C/c1ccc(O)c(O)c1)OC12CC3CC(CC(C3)C1)C2 | 4.52 | < 4.00 |  |  | 5.09 | 4.53 | < 4.00 | < 4.00 |  |  |  |  | 
COc1c(O)ccc(/C=C/C(=O)NC23CC4CC(CC(C4)C2)C3)c1[N+](=O)[O-] |  | 4.04 |  |  | 4.14 |  | 4.41 | 4.57 |  |  |  |  | 
COc1cc(/C=C/C(=O)NC23CC4CC(CC(C4)C2)C3)ccc1O |  | < 4.00 |  |  | < 4.00 |  | 4.17 | < 4.00 |  |  |  |  | 
COC(=O)/C=C/c1ccc(O)c(O)c1 [METHYLCAFFEATE] | 4.09 | 4.28 |  |  | 4.91 | < 4.00 | 4.22 | 4.76 |  |  |  |  | 
CC1(C)C2CCC1(C)C(OC(=O)/C=C/c1cc(O)c(O)c(Cl)c1)C2 (stereo unspecified) |  | 4.41 |  |  | 4.73 | 4.16 | 4.47 | 4.28 |  |  |  |  | 
C=CCOC(=O)/C=C/c1ccc(O)c(O)c1 | < 4.00 | 4.17 |  |  | 4.94 | 4.05 | 4.51 | 5.06 |  |  |  |  | 
COc1cc(/C=C/C(=O)OC23CC4CC(CC(C4)C2)C3)ccc1O |  | 4.22 |  |  | 4.03 |  | < 4.00 | 4.15 |  |  |  |  | 
COc1cc(/C=C/C(=O)NC23CC4CC(CC(C4)C2)C3)cc(Br)c1O |  | < 4.00 |  |  | 4.30 |  | 4.08 | 4.38 |  |  |  |  | 
O=P1(N(CCCl)CCCl)NCCCO1 (stereo unspecified) [CYCLOPHOSPHAMIDE ANHYDROUS] |  |  |  |  |  |  |  |  |  | 54.8% |  |  | 
COc1cc(/C=C/C(=O)NC23CC4CC(CC(C4)C2)C3)cc([N+](=O)[O-])c1O |  | 4.18 |  |  | 4.73 |  | 4.23 | 4.17 |  |  |  |  | 
O=C(/C=C/c1cc(O)c(O)c(Cl)c1)NC12CC3CC(CC(C3)C1)C2 |  | 4.30 |  |  | 4.45 |  | 4.72 | 4.17 |  |  |  |  | 
CCCCCCCCCCCCCCCCCCOC(=O)/C=C/c1ccc(O)c(O)c1 | 5.31 | < 4.00 |  |  | 4.99 | 4.76 | < 4.00 | < 4.00 |  |  |  |  | 
O=C(/C=C/c1cc(O)c(O)c(Cl)c1)OCCc1ccccc1 |  |  |  |  | 5.15 | 5.09 |  |  |  |  |  |  | 
O=C(/C=C/c1ccc(O)c(O)c1)O[C@H]1C[C@@](O)(C(=O)O)C[C@H](O)[C@@H]1O | < 4.00 |  |  |  | < 4.00 | < 4.00 |  |  |  |  |  |  | 
CCCCCCC(C)OC(=O)/C=C/c1ccc(O)c(O)c1 (stereo unspecified) | 4.62 | 4.42 |  |  | 5.29 | 4.76 | 4.30 | 6.39 |  |  |  |  | 
CCCCOC(=O)/C=C/c1ccc(O)c(O)c1 [BUTYL CAFFEATE] | < 4.00 | 4.39 |  |  | 5.12 | < 4.00 | 4.39 | 5.27 |  |  |  |  | 
COc1cc(/C=C/C(=O)NC23CC4CC(CC(C4)C2)C3)cc(Cl)c1O |  | 4.01 |  |  | 4.17 |  | 4.46 | 4.35 |  |  |  |  | 

More lines, in order of rising pIC50 [4], values ahead:

pIC50 [1] | pIC50 [4] | pIC50 [7] | pIC50 [8] | Structure (SMILES) | pIC50 [2] | pIC50 [3] | pIC50 [5] | pIC50 [6] | Activity [9] | inhibition in vivo at 40 mg/kg [10] | Activity [11] | pIC50 [12] | pIC50 [13]
4.39 | 4.42 |  |  | O=C(/C=C/c1ccc(O)c(O)c1)OCCc1ccccc1 [CAFFEIC ACID PHENETHYL ESTER] | 4.78 | 4.85 | 4.17 | 5.53 |  |  |  |  | 
4.27 | 4.46 |  |  | CCCCCCCCOC(=O)/C=C/c1ccc(O)c(O)c1 | 5.08 | 4.25 | 4.34 | 4.88 |  |  |  |  | 
 | 4.48 |  |  | O=C(/C=C/c1cc(O)c(O)c(Br)c1)NC12CC3CC(CC(C3)C1)C2 | < 4.00 |  | < 4.00 | 4.22 |  |  |  |  | 
4.31 | 4.50 |  |  | O=C(/C=C/c1ccc(O)c(O)c1)OCCCCc1ccccc1 | 4.95 | 4.40 | 4.05 | 5.24 |  |  |  |  | 
4.04 | 4.52 |  |  | CC(C)OC(=O)/C=C/c1ccc(O)c(O)c1 | 4.93 | 4.01 | 4.32 | 5.23 |  |  |  |  | 
4.29 | 4.53 |  |  | O=C(/C=C/c1ccc(O)c(O)c1)Oc1ccccc1 | 4.97 | 4.04 | 4.28 | 4.51 |  |  |  |  | 
< 4.00 | 4.54 |  |  | CCCOC(=O)/C=C/c1ccc(O)c(O)c1 | 4.93 | < 4.00 | 4.35 | 5.29 |  |  |  |  | 
4.34 | 4.62 |  |  | O=C(/C=C/c1ccc(O)c(O)c1)OC1CCCCC1 | 5.08 | 4.02 | 4.29 | 5.56 |  |  |  |  | 
4.42 | 4.63 |  |  | CC(C)(COC(=O)/C=C/c1ccc(O)c(O)c1)[N+](=O)[O-] | 5.03 | < 4.00 | 4.52 | 5.14 |  |  |  |  | 
4.07 | 4.63 |  |  | O=C(/C=C/c1ccc(O)c(O)c1)OCc1ccccc1 [BENZYL CAFFEATE] | 5.10 | 4.15 | 4.13 | 4.55 |  |  |  |  | 
4.19 | 4.63 |  |  | CCOC(=O)/C=C/c1ccc(O)c(O)c1 [ETHYL CAFFEATE] | 5.05 | < 4.00 | 4.47 | 5.21 |  |  |  |  | 
 | 4.64 |  |  | CC1(C)C2CCC1(C)C(OC(=O)/C=C/c1cc(O)c(O)c(Br)c1)C2 (stereo unspecified) | 4.82 |  | 4.54 | 4.70 |  |  |  |  | 
4.35 | 4.67 |  |  | CCCCCCCOC(=O)/C=C/c1ccc(O)c(O)c1 | 5.35 | 4.47 | 4.45 | 5.56 |  |  |  |  | 
4.50 | 4.69 |  |  | CC1(C)C2CCC1(C)C(OC(=O)/C=C/c1ccc(O)c(O)c1)C2 (stereo unspecified) | 5.47 | 4.92 | 4.13 | 4.45 |  |  |  |  | 
< 4.00 | 4.72 |  |  | C#CCOC(=O)/C=C/c1ccc(O)c(O)c1 | 4.91 | < 4.00 | 4.41 | 5.05 |  |  |  |  | 
5.35 | 4.76 |  |  | O=C(/C=C/c1cc(O)c(O)c(Br)c1)OCCc1ccccc1 | 5.07 | 5.17 | 4.55 | 5.08 |  |  |  |  | 
4.16 | 4.78 |  |  | CC(C)(C)OC(=O)/C=C/c1ccc(O)c(O)c1 | 5.10 | 4.10 | 4.38 | 5.46 |  |  |  |  | 
 | 4.86 |  |  | CC1(C)C2CCC1(C)C(OC(=O)/C=C/c1ccc(O)c(O)c1[N+](=O)[O-])C2 (stereo unspecified) | 4.28 |  | 4.29 | 5.03 |  |  |  |  | 
4.02 | 4.86 |  |  | CCC(C)OC(=O)/C=C/c1ccc(O)c(O)c1 (stereo unspecified) | 4.90 | < 4.00 | 4.47 | 5.50 |  |  |  |  | 
 | 4.96 |  |  | O=C(/C=C/c1ccc(O)c(O)c1[N+](=O)[O-])OCCc1ccccc1 | 4.74 |  | 4.77 | 5.36 |  |  |  |  | 
4.52 | 4.99 |  |  | O=C(/C=C/c1ccc(O)c(O)c1)NC12CC3CC(CC(C3)C1)C2 | 5.09 | 4.53 | 4.38 | 5.96 |  |  |  |  | 
4.83 | 5.09 |  |  | O=C(/C=C/c1ccc(O)c(O)c1)Oc1ccc2ccccc2c1 | 5.47 | 4.35 | 4.40 | 6.44 |  |  |  |  | 
5.42 | 5.89 | 5.36 | 5.39 | O=C(/C=C/c1cc(O)c(O)c([N+](=O)[O-])c1)OC12CC3CC(CC(C3)C1)C2 | 5.39 | 5.34 | 5.17 | 5.25 | Active | 36.7% | Active | 4.67 | 5.09
 | 6.48 |  |  | COc1cccc2c1C(=O)c1c(O)c3c(c(O)c1C2=O)C[C@@](O)(C(=O)CO)C[C@@H]3O[C@H]1C[C@H](N)[C@H](O)[C@H](C)O1 [DOXORUBICIN] | 6.38 |  | 5.69 | 5.97 |  |  |  |  | 
